The target in the test is T1, HCV polymerase (Hepatitis C virus genotype 1b, UniProt Q9WMX2).
T1 construct: (His)6 (C)
The test is described as follows: biochemical. The note with it: polymerase assay of Biological Example 1; read-out: NS5B polymerase IC50.
Take `CNC(=O)c1c(-c2ccc(C)cc2)oc2nc(N(CCCC(C#N)CC(=O)O)S(C)(=O)=O)c(C3CC3)cc12` (centres unmarked) [Example 29.999995, 3-cyano-6-(N-(5-cyclopropyl-3-(methylcarbamoyl)-2-p-tolylfuro[2,3-b]pyridin-6-yl)methylsulfonamido) hexanoic acid]: the IC50 (usually the concentration needed to halve the response being measured) came out at 3 nM.
Then `CNC(=O)c1c(-c2ccc(C)cc2)oc2nc(N(CCCC(CC(=O)O)OCCOC)S(C)(=O)=O)c(C3CC3)cc12` (centres unmarked) [Example 29.999996, 6-(N-(5-cyclopropyl-3-(methylcarbamoyl)-2-p-tolylfuro[2,3-b]pyridin-6-yl)methylsulfonamido)-3-(2-methoxyethoxy) hexanoic acid], with 12 nM.
Then `CNC(=O)c1c(-c2ccc(C)cc2)oc2nc(N(CCCCC(=O)O)S(C)(=O)=O)c(CCO)cc12` [Example 29.999997, 5-(N-(5-(2-hydroxyethyl)-3-(methylcarbamoyl)-2-p-tolylfuro[2,3-b]pyridin-6-yl)methylsulfonamido) pentanoic acid], with 48 nM.
The same measure for `CNC(=O)c1c(-c2ccc(C)c(C)c2)oc2nc(N(CCCCC(=O)O)S(C)(=O)=O)c(C3CC3)cc12` [Example 29.999998, 5-(N-(5-cyclopropyl-2-(3,4-dimethylphenyl)-3-(methylcarbamoyl)furo[2,3-b]pyridin-6-yl)methylsulfonamido) pentanoic acid]: 4 nM; for `CNC(=O)c1c(-c2ccc(C)c(F)c2)oc2nc(N(CCCCC(=O)O)S(C)(=O)=O)c(C3CC3)cc12` [Example 29.999999, 5-(N-(5-cyclopropyl-2-(3-fluoro-4-methylphenyl)-3-(methylcarbamoyl)furo[2,3-b]pyridin-6-yl)methylsulfonamido) pentanoic acid]: 2 nM; for `CNC(=O)c1c(-c2ccc(F)cc2)oc2nc3c(cc12)C(C)(O)CCCN3S(C)(=O)=O` (centres unmarked) [Example 32, 2-(4-Fluoro-phenyl)-5-hydroxy-9-methanesulfonyl-5-methyl-6,7,8,9-tetrahydro-5H-1-oxa-9,10-diaza-cyclohepta[f]indene-3-carboxylic acid methylamide]: 651 nM.
For the compound `C=C[C@@H](CN(c1nc2oc(-c3ccc(F)cc3)c(C(=O)NC)c2cc1C(=C)C)S(C)(=O)=O)OCc1ccccc1` [Example 35, (S)-6-(N-(2-(benzyloxy)but-3-enyl)methylsulfonamido)-2-(4-fluorophenyl)-N-methyl-5-(prop-1-en-2-yl)furo[2,3-b]pyridine-3-carboxamide], the half-maximal inhibitory concentration (IC50) was 6030 nM.
Take `C=C1OCCN(S(C)(=O)=O)c2nc3oc(-c4ccc(F)cc4)c(C(=O)NC)c3cc21` [Example 36.1, 2-(4-Fluoro-phenyl)-9-methanesulfonyl-5-methylene-5,7,8,9-tetrahydro-1,6-dioxa-9,10-diaza-cyclohepta[f]indene-3-carboxylic acid methylamide]: the 50% inhibitory concentration (IC50) amounted to 46 nM.
The same measure for `CNC(=O)c1c(-c2ccc(F)cc2)oc2nc3c(cc12)CCCCN(S(C)(=O)=O)CCCN3S(C)(=O)=O` [Example 36.5, 2-(4-Fluoro-phenyl)-9,13-bis-methanesulfonyl-6,7,8,9,10,11,12,13-octahydro-5H-1-oxa-9,13,14-triaza-cycloundeca[f]indene-3-carboxylic acid methylamide]: 474 nM.
Then `CNC(=O)c1c(-c2ccc(F)cc2)oc2nc3c(cc12)C(C)CCN3S(C)(=O)=O` (centres unmarked) [Example 36.6, 2-(4-fluorophenyl)-N,5-dimethyl-8-(methylsulfonyl)-5,6,7,8-tetrahydrofuro[2,3-b][1,8]naphthyridine-3-carboxamide], with 231 nM; and `CNC(=O)c1c(-c2ccc(F)cc2)oc2nc3c(cc12)C(C)CCCCCN3S(C)(=O)=O` (centres unmarked) [Example 37, 2-(4-Fluoro-phenyl)-11-methanesulfonyl-5-methyl-6,7,8,9,10,11-hexahydro-5H-1-oxa-11,12-diaza-cyclonona[f]indene-3-carboxylic acid methylamide], with 48 nM; and `CNC(=O)c1c(-c2ccc(F)cc2)oc2nc3c(cc12)C(C)C(O)CCCCN3S(C)(=O)=O` (centres unmarked) [Example 38, 2-(4-Fluoro-phenyl)-6-hydroxy-11-methanesulfonyl-5-methyl-6,7,8,9,10,11-hexahydro-5H-1-oxa-11,12-diaza-cyclonona[f]indene-3-carboxylic acid methylamide], with 509 nM.
Then `CNC(=O)c1c(-c2ccc(F)cc2)oc2nc3c(cc12)CCCCN3S(C)(=O)=O` [Example 39, 2-(4-Fluoro-phenyl)-9-methanesulfonyl-6,7,8,9-tetrahydro-5H-1-oxa-9,10-diaza-cyclohepta[f]indene-3-carboxylic acid methylamide], with 161 nM; and `CNC(=O)c1c(-c2ccc(C)cc2)oc2nc(N(CCOCC(C)(C)C(=O)O)S(C)(=O)=O)c(C3CC3)cc12` [Example 41, 3-(2-(N-(5-cyclopropyl-3-(methylcarbamoyl)-2-p-tolylfuro[2,3-b]pyridin-6-yl)methylsulfonamido)ethoxy)-2,2-dimethylpropanoic acid], with 3 nM.
On to `CCc1ccc(-c2oc3nc(N(CCOCC(C)(C)C(=O)O)S(C)(=O)=O)c(C4CC4)cc3c2C(=O)NC)cc1` [Example 41.1, 3-(2-(N-(5-Cyclopropyl-2-(4-ethylphenyl)-3-(methylcarbamoyl)furo[2,3-b]pyridin-6-yl)methylsulfonamido)ethoxy)-2,2-dimethylpropanoic acid], for which the IC50 was 2 nM.
Turning to `CCc1ccc(-c2oc3nc(N(CCCC(C)(CCOC)C(=O)O)S(C)(=O)=O)c(C4CC4)cc3c2C(=O)NC)cc1` (centres unmarked) [Example 42, 5-(N-(5-Cyclopropyl-2-(4-ethylphenyl)-3-(methylcarbamoyl)furo[2,3-b]pyridin-6-yl)methylsulfonamido)-2-(2-methoxyethyl)-2-methylpentanoic acid], the IC50 was determined as 2 nM.
Then `CNC(=O)c1c(-c2ccc(C)cc2)oc2nc(N(CCCC(C)(CCOC)C(=O)O)S(C)(=O)=O)c(C3CC3)cc12` (centres unmarked) [Example 42.1, 5-(N-(5-cyclopropyl-3-(methylcarbamoyl)-2-p-tolylfuro[2,3-b]pyridin-6-yl)methylsulfonamido)-2-(2-methoxyethyl)-2-methylpentanoic acid], with 3 nM.
The same measure for `CCc1ccc(-c2oc3nc(N(CCCC(C)(COC)C(=O)O)S(C)(=O)=O)c(C4CC4)cc3c2C(=O)NC)cc1` (centres unmarked) [Example 43, 5-(N-(5-Cyclopropyl-2-(4-ethylphenyl)-3-(methylcarbamoyl)furo[2,3-b]pyridin-6-yl)methylsulfonamido)-2-(methoxymethyl)-2-methylpentanoic acid]: 2 nM.
The same measure for `CNC(=O)c1c(-c2ccc(C)cc2)oc2nc(N(CCCC(C)(COC)C(=O)O)S(C)(=O)=O)c(C3CC3)cc12` (centres unmarked) [Example 43.1, 5-(N-(5-cyclopropyl-3-(methylcarbamoyl)-2-p-tolylfuro[2,3-b]pyridin-6-yl)methylsulfonamido)-2-(methoxymethyl)-2-methylpentanoic acid]: 2 nM; for `CNC(=O)c1c(-c2ccc(C)cc2)oc2nc(N(CCC(CC(=O)O)N(C)C)S(C)(=O)=O)c(C3CC3)cc12` (centres unmarked) [Example 44, 5-[(5-Cyclopropyl-3-methylcarbamoyl-2-p-tolyl-furo[2,3-b]pyridin-6-yl)-methanesulfonyl-amino]-3-dimethylamino-pentanoic acid]: 20 nM.
Turning to `CCOC(=O)/C=C/CCCN(c1nc2oc(-c3ccc(C)cc3)c(C(=O)NC)c2cc1C1CC1)S(C)(=O)=O` [Example 44.1, (E)-ethyl 6-(N-(5-cyclopropyl-3-(methylcarbamoyl)-2-p-tolylfuro[2,3-b]pyridin-6-yl)methylsulfonamido)hex-2-enoate], the IC50 came out at 5 nM.
For `CNC(=O)c1c(-c2ccc(C)cc2)oc2nc(N(CCc3ccccc3C(=O)O)S(C)(=O)=O)c(C3CC3)cc12` [Example 45, 2-(2-(N-(5-cyclopropyl-3-(methylcarbamoyl)-2-(p-tolyl)furo[2,3-b]pyridin-6-yl)methylsulfonamido)ethyl)benzoic acid], the IC50 worked out at 8 nM.
For `CNC(=O)c1c(-c2ccc(C)cc2)oc2nc(N(CCCCC(C(=O)O)S(C)(=O)=O)S(C)(=O)=O)c(C3CC3)cc12` (centres unmarked) [Example 46, 6-(N-(5-cyclopropyl-3-(methylcarbamoyl)-2-(p-tolyl)furo[2,3-b]pyridin-6-yl)methylsulfonamido)-2-(methylsulfonyl)hexanoic acid], the IC50 worked out at 3 nM.
The same measure for `CNC(=O)c1c(-c2ccc(C)cc2)oc2nc(N(CCCC/C(C(=O)O)=C(\C)O)S(C)(=O)=O)c(C3CC3)cc12` [Example 46.1, (Z)-6-(N-(5-cyclopropyl-3-(methylcarbamoyl)-2-(p-tolyl)furo[2,3-b]pyridin-6-yl)methylsulfonamido)-2-(1-hydroxyethylidene)hexanoic acid]: 3 nM; for `CNC(=O)c1c(-c2ccc(C)cc2)oc2nc(N(CCC[C@H](C)C(=O)O)S(C)(=O)=O)c(C3CC3)cc12` [Example 47, (S)-5-(N-(5-cyclopropyl-3-(methylcarbamoyl)-2-p-tolylfuro[2,3-b]pyridin-6-yl)methylsulfonamido)-2-methylpentanoic acid]: 2 nM.
As to `CNC(=O)c1c(-c2ccc(C)cc2)oc2nc(N(CCC[C@@H](C)C(=O)N[C@@H](CO)Cc3ccccc3)S(C)(=O)=O)c(C3CC3)cc12` [Example 47.1], the IC50 worked out at 668 nM.
On to `CNC(=O)c1c(-c2ccc(C)cc2)oc2nc(N(CCC[C@H](C)C(=O)N[C@@H](CO)Cc3ccccc3)S(C)(=O)=O)c(C3CC3)cc12` [Example 47.2], for which the IC50 came out at 58 nM.
Then `CNC(=O)c1c(-c2ccc(C)cc2)oc2nc(N(CCC[C@@H](C)C(=O)O)S(C)(=O)=O)c(C3CC3)cc12` [Example 47.3, (R)-5-(N-(5-cyclopropyl-3-(methylcarbamoyl)-2-p-tolylfuro[2,3-b]pyridin-6-yl)methylsulfonamido)-2-methylpentanoic acid], with 3 nM; and `CCc1ccc(-c2oc3nc(N(CCCC[C@@H](COC)C(=O)O)S(C)(=O)=O)c(C4CC4)cc3c2C(=O)NC)cc1` [Example 47.4, (S)-6-(N-(5-Cyclopropyl-2-(4-ethylphenyl)-3-(methylcarbamoyl)furo[2,3-b]pyridin-6-yl)methylsulfonamido)-2-(methoxymethyl)hexanoic acid], with 3 nM.

Values taken from patent US20120015907A1, “Furopyridine compounds and uses thereof” (NOVARTIS AG, priority 2010, published 2012).
